From patent US9399646B2 (Genentech, Inc., priority 2010, dated 2016)

Legend:
MCF-7 cells = assay: Breast cancer cell viability assay (CellTiter-Glo, 5 days); assay type: cell-based; conditions: 5 days' compound exposure; for IC50: Homo sapiens, MCF7, 120 h
How it was run: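 Eleven-point semilog compound series, final 0.3-0.000003 μM, added to overnight-adhered MCF-7 cells (320/well; RPMI, 10% FBS, 20 mM HEPES) for 5 days. Viability read by CellTiter-Glo luminescence, background from medium without cells subtracted, expressed relative to untreated cells.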

ER-α in MCF-7 cells = target: T1, ER-α in MCF-7 cells (Homo sapiens, UniProt P03372); assay: Breast cancer cell ER-α in cell western assay (SP1); assay type: cell-based; design: endogenous in cells; host or cells: MCF-7; conditions: 4 or 24 hr post compound addition; for Emax: MCF7, SP1 antibody, read-out: ER-α In Cell Western Assay (SP1) Max Response; for DC50: SP1 antibody, read-out: ER-α In Cell Western Assay (SP1) IC50
T1 sequence (P03372 1-595): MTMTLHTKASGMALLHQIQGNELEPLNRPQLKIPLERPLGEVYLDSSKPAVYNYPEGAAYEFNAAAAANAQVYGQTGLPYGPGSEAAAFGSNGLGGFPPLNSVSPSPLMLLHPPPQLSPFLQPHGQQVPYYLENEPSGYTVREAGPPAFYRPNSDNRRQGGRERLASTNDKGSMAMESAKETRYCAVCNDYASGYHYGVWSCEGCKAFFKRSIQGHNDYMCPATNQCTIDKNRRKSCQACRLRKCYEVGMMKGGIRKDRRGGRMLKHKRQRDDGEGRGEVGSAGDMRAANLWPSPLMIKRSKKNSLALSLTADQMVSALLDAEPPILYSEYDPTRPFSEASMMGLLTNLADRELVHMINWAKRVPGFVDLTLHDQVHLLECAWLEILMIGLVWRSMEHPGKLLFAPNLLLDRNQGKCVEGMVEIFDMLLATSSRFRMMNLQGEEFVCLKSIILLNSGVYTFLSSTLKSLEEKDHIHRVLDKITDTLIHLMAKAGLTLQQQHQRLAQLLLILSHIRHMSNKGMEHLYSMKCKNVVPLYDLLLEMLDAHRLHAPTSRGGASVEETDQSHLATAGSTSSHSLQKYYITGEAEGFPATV
How it was run: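 MCF-7, charcoal-stripped FBS/RPMI, 3200 cells/well, adhered overnight. Formalin fix, SP1 Ab o/n 4 °C, IRDye 800CW + DRAQ5; % ER = 800/700 ratio vs untreated.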

Structure (SMILES) | MCF7 Viability Assay Max Response (MCF-7 cells) | IC50 (MCF-7 cells) [nM] | Emax (ER-α in MCF-7 cells) [%] | DC50 (ER-α in MCF-7 cells) [nM]
CC/C(=C(/c1ccc(/C=C/C(=O)O)cc1)c1ccc2[nH]ncc2c1)c1ccsc1 [Compound 24, (E)-3-(4-((E)-1-(1H-Indazol-5-yl)-2-(thiophen-3-yl)but-1-en-1-yl)phenyl)acrylic acid] | ++ (++ = a single % value ≧ 40%) | ≤ 100 | ≥ 40 | ≤ 100
CC/C(=C(/c1ccc(/C=C/C(=O)NS(=O)(=O)c2ccccn2)cc1)c1ccc2[nH]ncc2c1)c1ccc(F)cc1Cl [Compound 432, (E)-3-(4-((E)-2-(2-Chloro-4-fluorophenyl)-1-(1H-indazol-5-yl)but-1-en-1-yl)phenyl)-N-(pyridin-2-ylsulfonyl)acrylamide] | ++ (++ = a single % value ≧ 40%) | ≤ 100 | ≥ 40 | ≤ 100
CC/C(=C(/c1ccc(/C=C/C(=O)O)cc1)c1ccc2[nH]ncc2c1)c1cscc1C [Compound 223, (E)-3-(4-((E)-1-(1H-Indazol-5-yl)-2-(4-methylthiophen-3-yl)but-1-en-1-yl)phenyl)acrylic acid] | ++ (++ = a single % value ≧ 40%) | ≤ 100 | ≥ 40 | 
CC/C(=C(/c1ccc(/C=C/C(=O)O)cc1)c1ccc2scnc2c1)c1ccncc1Cl [Compound 284, (E)-3-(4-((E)-1-(Benzo[d]thiazol-5-yl)-2-(3-chloropyridin-4-yl)but-1-en-1-yl)phenyl)acrylic acid] | ++ (++ = a single % value ≧ 40%) | ≤ 100 | ≥ 40 | ≤ 100
CC/C(=C(/c1ccc(/C=C/C(=O)O)cc1)c1ccc2[nH]ncc2c1)c1ccc(C)c(Oc2ccccc2)c1 [Compound 318, (E)-3-(4-((E)-1-(1H-Indazol-5-yl)-2-(4-methyl-3-phenoxyphenyl)but-1-en-1-yl)phenyl)acrylic acid] | ++ (++ = a single % value ≧ 40%) | > 100 | ≥ 40 | ≤ 100
CC/C(=C(/c1ccc(/C=C/C(=O)O)cc1)c1cccc2[nH]ncc12)c1ccccc1 [Compound 18, (E)-3-(4-((E)-1-(1H-Indazol-4-yl)-2-phenylbut-1-en-1-yl)phenyl)acrylic acid] | ++ (++ = a single % value ≧ 40%) | ≤ 100 | ≥ 40 | 
CC/C(=C(/c1ccc(/C=C/C(=O)NC(C)C)cc1)c1ccc2[nH]ncc2c1)c1ccccc1 [Compound 419, (E)-3-(4-((E)-1-(1H-Indazol-5-yl)-2-phenylbut-1-en-1-yl)phenyl)-N-isopropylacrylamide] | ++ (++ = a single % value ≧ 40%) | ≤ 100 | ≥ 40 | ≤ 100
CC/C(=C(/c1ccc(/C=C/C(=O)O)cc1)c1ccc2[nH]ncc2c1)c1cccc(Oc2ccccc2C)c1 [Compound 368, (E)-3-(4-((E)-1-(1H-Indazol-5-yl)-2-(3-(o-tolyloxy)phenyl)but-1-en-1-yl)phenyl)acrylic acid] | ++ (++ = a single % value ≧ 40%) | ≤ 100 | ≥ 40 | ≤ 100
CC/C(=C(/c1ccc(/C=C/C(=O)O)cc1)c1ccc2[nH]ncc2c1)c1ccccn1 [Compound 25, (E)-3-(4-((E)-1-(1H-Indazol-5-yl)-2-(pyridin-2-yl)but-1-en-1-yl)phenyl)acrylic acid] | ++ (++ = a single % value ≧ 40%) | > 100 | ≥ 40 | > 100
CCOC(=O)/C=C/c1ccc(/C(=C(/CC)c2ccc(F)cc2Cl)c2ccc3c(cnn3C3CCCCO3)c2)cc1 (stereo not shown) [Compound 193, (E)-Ethyl 3-(4-((E)-2-(2-chloro-4-fluorophenyl)-1-(1-(tetrahydro-2H-pyran-2-yl)-1H-indazol-5-yl)but-1-en-1-yl)phenyl)acrylate] | + (+ = a single % value < 40%) | ≤ 100 | ≥ 40 | > 100
CC/C(=C(/c1ccc(/C=C/C(=O)O)cc1)c1ccc2[nH]ncc2c1)c1ccc2c(c1)OCCO2 [Compound 250, (E)-3-(4-((E)-2-(2,3-Dihydrobenzo[b][1,4]dioxin-6-yl)-1-(1H-indazol-5-yl)but-1-en-1-yl)phenyl)acrylic acid] | ++ (++ = a single % value ≧ 40%) | ≤ 100 | ≥ 40 | ≤ 100
CCCCCCOc1cccc(/C(CC)=C(\c2ccc(/C=C/C(=O)O)cc2)c2ccc3[nH]ncc3c2)c1 [Compound 350, (E)-3-(4-((E)-2-(3-(Hexyloxy)phenyl)-1-(1H-indazol-5-yl)but-1-en-1-yl)phenyl)acrylic acid] | ++ (++ = a single % value ≧ 40%) | > 100 | ≥ 40 | ≤ 100
CS(=O)(=O)c1ccc(Oc2ccc(/C(=C(\c3ccc(/C=C/C(=O)O)cc3)c3ccc4[nH]ncc4c3)C3CCC3)cc2)nc1 [Compound 162, (E)-3-(4-((E)-2-Cyclobutyl-1-(1H-indazol-5-yl)-2-(4-((5-(methylsulfonyl)pyridin-2-yl)oxy)phenyl)vinyl)phenyl)acrylic acid] | ++ (++ = a single % value ≧ 40%) | ≤ 100 | ≥ 40 | ≤ 100
CC/C(=C(/c1ccc(/C=C/C(=O)O)cc1)c1ccc2cccnc2c1)c1ccc(F)cc1Cl [Compound 289, (E)-3-(4-((E)-2-(2-Chloro-4-fluorophenyl)-1-(quinolin-7-yl)but-1-en-1-yl)phenyl)acrylic acid] | ++ (++ = a single % value ≧ 40%) | > 100 | ≥ 40 | ≤ 100
CC/C(=C(/c1ccc(/C=C/C(=O)O)cc1)c1ccc2[nH]ncc2c1)c1ccc(Oc2cccnc2)cc1 [Compound 292, (E)-3-(4-((E)-1-(1H-Indazol-5-yl)-2-(4-(pyridin-3-yloxy)phenyl)but-1-en-1-yl)phenyl)acrylic acid] | ++ (++ = a single % value ≧ 40%) | ≤ 100 | ≥ 40 | ≤ 100
CC/C(=C(/c1ccc(/C=C/C(=O)O)cc1)c1ccc2scnc2c1)c1ccc(F)cc1 [Compound 281, (E)-3-(4-((E)-1-(Benzo[d]thiazol-5-yl)-2-(4-fluorophenyl)but-1-en-1-yl)phenyl)acrylic acid] | ++ (++ = a single % value ≧ 40%) | > 100 | ≥ 40 | ≤ 100
CC/C(=C(/c1ccc(/C=C/C(=O)O)cc1)c1ccc2[nH]ncc2c1)c1cccc(Oc2ccc(C(F)(F)F)cn2)c1 [Compound 381, (E)-3-(4-((E)-1-(1H-Indazol-5-yl)-2-(3-((5-(trifluoromethyl)pyridin-2-yl)oxy)phenyl)but-1-en-1-yl)phenyl)acrylic acid] | ++ (++ = a single % value ≧ 40%) | ≤ 100 | ≥ 40 | ≤ 100
CC/C(=C(/c1ccc(/C=C/C(=O)O)cc1)c1cc(F)c2[nH]ccc2c1)c1ccc(Cl)cc1Cl [Compound 253, (E)-3-(4-((E)-2-(2,4-Dichlorophenyl)-1-(7-fluoro-1H-indol-5-yl)but-1-en-1-yl)phenyl)acrylic acid] | ++ (++ = a single % value ≧ 40%) | ≤ 100 | ≥ 40 | ≤ 100
Cc1cscc1/C(=C(\c1ccc(/C=C/C(=O)O)cc1)c1ccc2[nH]ncc2c1)C(C)C [Compound 154, (E)-3-(4-((E)-1-(1H-Indazol-5-yl)-3-methyl-2-(4-methylthiophen-3-yl)but-1-en-1-yl)phenyl)acrylic acid] | ++ (++ = a single % value ≧ 40%) | ≤ 100 | ≥ 40 | ≤ 100
CC/C(=C(/c1ccc(/C=C/C(=O)O)cc1)c1ccc2[nH]nc(F)c2c1)c1cscc1C [Compound 312, (E)-3-(4-((E)-1-(3-Fluoro-1H-indazol-5-yl)-2-(4-methylthiophen-3-yl)but-1-en-1-yl)phenyl)acrylic acid] | ++ (++ = a single % value ≧ 40%) | ≤ 100 | ≥ 40 | ≤ 100
CC/C(=C(/c1ccc(/C=C/C(=O)O)cc1)c1ccc2[nH]ncc2c1)c1ccc(-c2nccs2)cc1 [Compound 387, (E)-3-(4-((E)-1-(1H-Indazol-5-yl)-2-(4-(thiazol-2-yl)phenyl)but-1-en-1-yl)phenyl)acrylic acid] | ++ (++ = a single % value ≧ 40%) | > 100 | ≥ 40 | ≤ 100
